“Also recorded” adds a separate entry of the source.
Legend:
CRMP-2 = molecular target: T1, CRMP-2 (Rattus norvegicus, UniProt P47942); experiment: biological pull-down (Affinity Fishhook) with biotinylated affinity reagents in rat brain; assay type: binding; conditions: biotinyl affinity reagent
T1 construct: from tissue; host or cells: rat brain (extract/fractions)
Procedure: Biological pull-down experiments (“Affinity Fishhook”) were performed by incubating a set of four Lacosamide-related affinity-reagents with biotinyl-moieties (R)—N-Benzyl-2-acetamido-6-[Nε-(biotinyl)-2-isothiocynato-6-aminohexanamido]-aminohexanamide((R)-7), (S)—N-Benzyl-2-acetamido-6-[Nε-(biotinyl)-2-isothiocynato-6-aminohexanamido]-aminohexanamide((S)-7), (R)—N-{3-[Nε-(biotinyl)-2-isothiocynato-6-aminohexanamide]-benzyl}-2-acetamido-3-methoxypropion-amide((R)-34) and (R)—N-{4-[Nε-(biotinyl)-2-isothiocynato-6-aminohexanamide]-benzyl}-2-acetamido-3-methoxypropion-amide((R)-35) to rat brain.
(a) The pattern of affinity captured proteins is completely different from raw extracts and controls and the protein is consistently captured under a variety of conditions.

[1] = system: neural derivates of murine embryonal stem cells; experiment: NMDA excitotoxic insult, survival of neural derivates of murine embryonal stem cells (calcium imaging); assay type: cell-based; conditions: 200 μM NMDA; for survival rate after excitotoxic insult: 100 μM compound, NMDA alone 15.6% (16%)
human CRMP-2 = molecular target: T2, human CRMP-2 (Homo sapiens, UniProt Q16555); experiment: competition protein binding with [14C]-labeled lacosamide, crude membranes from CRMP-2 transfected Xenopus oocytes
T2 construct: expressed in transfected cells; host or cells: Xenopus oocytes (crude membranes)
Procedure: It was therefore the object of the present invention to provide a method of identifying compounds suitable for the prevention, alleviation or/and treatment of diseases or conditions which can be treated by Lacosamide, based on the mode of action of Lacosamide. […] The binding was confirmed in experiments employing heterologously expressed human CRMP-2 in Xenopus oocytes.
Based on the results of the previous study, the present binding curve ranged from 1 to 100 μM (10 concentrations, in triplicates).

[2] = system: hippocampal primary cells; experiment: axon growth in hippocampal primary cells (Tau-1 immunofluorescence); assay type: cell-based; conditions: for BDNF-induced axonal growth: 200 ng/ml BDNF
Procedure: It could be shown that the neurotrophins NT3 and BDNF stimulate axonal outgrowth in a primary culture of embryonal hippocampal neurons. Quantification of neurite outgrowth was performed by immunofluorescence microscopy employing an antibody against the axonal marker protein Tau-1.

Question: For `COC[C@@H](NC(C)=O)C(=O)NCc1cccc(NC(=O)C(CCCCNC(=O)CCCCC2SCC3NC(=O)NC32)N=C=S)c1` (stereo partly drawn) [(R)-34, (R)—N-{3-[Nε-(biotinyl)-2-isothiocynato-6-aminohexanamide]-benzyl}-2-acetamido-3-methoxypropion-amide], which “proteins captured in pull-down” value (CRMP-2) is on record?
Answer: Its value is “enrichment of an overlapping set of proteins, including collapsing response mediator protein (CRMP-2)”.

Question: Which “survival rate after excitotoxic insult” value ([1]; listed as S-enantiomer) does the source give for `COC[C@H](NC(C)=O)C(=O)NCc1ccccc1` (single isomer, unassigned) [S-enantiomer of lacosamide] here?
Answer: Its value is “only a minor effect”.

Question: With `CC(=O)N[C@@H](CCCCNC(=O)C(CCCCNC(=O)CCCC[C@@H]1SC[C@@H]2NC(=O)N[C@@H]21)N=C=S)C(=O)NCc1ccccc1` (stereo partly drawn) [(S)-7, (S)—N-Benzyl-2-acetamido-6-[Nε-(biotinyl)-2-isothiocynato-6-aminohexanamido]-aminohexanamide] as the molecule, how does the “proteins captured in pull-down” value (CRMP-2) read?
Answer: Its value is “enrichment of an overlapping set of proteins, including collapsing response mediator protein (CRMP-2)”.

Question: How did the “survival rate after excitotoxic insult” value [1] turn out when `COC[C@@H](NC(C)=O)C(=O)NCc1ccccc1` [Lacosamide, (R)-2-acetamide-N-benzyl-3-methoxypropionamide] was run?
Answer: The value was 71%.

Question: And the “neuroprotective effect after pre-incubation with CRMP-2 siRNA” value ([1]; CRMP-2 siRNA pre-incubation)?
Answer: The value was “diminished”.

Question: What about the Kd (human CRMP-2) of the same molecule?
Answer: The Kd was under 5 µM.

Question: What about the Bmax (human CRMP-2; [14C]-lacosamide, binding curve 1 to 100 μM) of the same molecule?
Answer: Its Bmax is “about 200 pM/mg”.

Question: And the specific binding (human CRMP-2; crude membranes from CRMP-2 transfected Xenopus oocytes, 1 to 100 μM)?
Answer: Its specific binding is “competitive and specific binding was observed”.

Question: And the NT3-induced axonal growth ([2]; 50 ng/ml NT3, 100 μM Lacosamide)?
Answer: The NT3-induced axonal growth was “significantly decreases”.

Question: And the BDNF-induced axonal growth ([2]; 1 μM Lacosamide)?
Answer: Its BDNF-induced axonal growth is “significantly decreases”.

Question: What about the BDNF-induced axonal growth ([2]; 100 μM Lacosamide) of the same molecule?
Answer: Its BDNF-induced axonal growth is “significantly decreases”.

Question: What about the “basal axonal outgrowth (axon length)” value ([2]; Lacosamide 1-200 μM, no neurotrophin) of the same molecule?
Answer: The value was “does not significantly change; also recorded: did not significantly change”.

Question: What about the NT3-induced neuronal outgrowth ([2]; concentration not stated in text (FIG. 2)) of the same molecule?
Answer: The NT3-induced neuronal outgrowth was “attenuated”.

Question: And the BDNF-induced neuronal outgrowth ([2]; concentration not stated in text (FIG. 3))?
Answer: The BDNF-induced neuronal outgrowth was “attenuated”.

Question: `CC(=O)N[C@H](CCCCNC(=O)C(CCCCNC(=O)CCCC[C@@H]1SC[C@@H]2NC(=O)N[C@@H]21)N=C=S)C(=O)NCc1ccccc1` (stereo partly drawn) [(R)-7, (R)—N-Benzyl-2-acetamido-6-[Nε-(biotinyl)-2-isothiocynato-6-aminohexanamido]-aminohexanamide] was tested. Which “proteins captured in pull-down” value (CRMP-2) did it give?
Answer: Its value is “enrichment of an overlapping set of proteins, including collapsing response mediator protein (CRMP-2)”.

Question: Which “proteins captured in pull-down” value (CRMP-2) does the source give for `COC[C@@H](NC(C)=O)C(=O)NCc1ccc(NC(=O)C(CCCCNC(=O)CCCCC2SCC3NC(=O)NC32)N=C=S)cc1` (stereo partly drawn) [(R)-35, (R)—N-{4-[Nε-(biotinyl)-2-isothiocynato-6-aminohexanamide]-benzyl}-2-acetamido-3-methoxypropion-amide] here?
Answer: The value was “enrichment of an overlapping set of proteins, including collapsing response mediator protein (CRMP-2)”.

Source: patent publication US20090241205A1, “METHOD FOR IDENTIFYING CRMP MODULATORS” (priority 2006, published 2009)
